Assay results taken from PMC6901109 (Bioorganic & medicinal chemistry letters, 2019).
Each block holds one compound with its values, some of them ahead of it.

Experiments:
HLM half-life = format: in vitro ADME; details: human, liver microsomes
Cryptococcus spp. = assay: Antifungal activity against Cryptococcus spp.; format: cell-based
HepG2 = HepG2 viability; format: cell-based; details: at a concentration of 3 μM
PigW = biological target: T1, PigW (Homo sapiens, UniProt Q7Z7B1); assay: PigW assay; format: biochemical
T1 sequence (Q7Z7B1 1-504): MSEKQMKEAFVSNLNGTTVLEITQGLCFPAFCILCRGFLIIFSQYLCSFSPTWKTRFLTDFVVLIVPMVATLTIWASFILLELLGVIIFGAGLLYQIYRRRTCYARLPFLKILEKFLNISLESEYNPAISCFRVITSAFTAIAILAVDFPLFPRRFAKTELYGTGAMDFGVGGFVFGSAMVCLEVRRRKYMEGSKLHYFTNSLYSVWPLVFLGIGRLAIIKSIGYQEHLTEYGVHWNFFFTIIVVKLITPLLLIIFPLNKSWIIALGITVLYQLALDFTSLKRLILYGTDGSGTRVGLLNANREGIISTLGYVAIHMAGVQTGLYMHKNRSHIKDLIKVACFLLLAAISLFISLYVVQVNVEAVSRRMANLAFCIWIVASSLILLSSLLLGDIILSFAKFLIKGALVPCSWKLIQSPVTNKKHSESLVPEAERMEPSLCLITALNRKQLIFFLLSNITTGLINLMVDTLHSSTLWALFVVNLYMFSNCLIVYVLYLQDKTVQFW

half-life (HLM half-life): ~3 min
Compound: Nc1ncccc1-c1cc(Cc2ccc(Cc3ccco3)cc2)no1 [Compound 8d]

half-life (HLM half-life): 14 min
Compound: Nc1ncccc1-c1cc(Cc2ccc(Cc3ccc(F)o3)cc2)no1 [Compound 8e]

Compound: Nc1ncccc1-c1cc(Cc2ccc(CNCc3ccn[nH]3)cc2)no1 [Compound 10b]
antifungal activity (in words) (Cryptococcus spp.): inactive

Compound: Cc1nccc(NCc2ccc(Cc3cc(-c4cccnc4N)on3)cc2)n1 [Compound 11b]
antifungal activity (in words) (Cryptococcus spp.): inactive

Compound: Nc1ncccc1-c1cc(Cc2ccc(Oc3ccccn3)cc2)no1 [Compound 12b]
HepG2 cytotoxicity (in words) (HepG2): significant liability

Compound: Cc1occc1COc1ccc(Cc2cc(-c3cccnc3N)on2)cn1 [Compound 13k]
fold weaker antifungal activity compared to the unsubstituted analog 13j (Cryptococcus spp.; ortho-methyl group, vs 13j): about 100 fold

activity against the human homolog PigW (in words) (PigW): significant activity
half-life (HLM half-life): 68.2 min
Compound: Nc1ncccc1-c1cc(Cc2ccc(OCc3cccc(Cl)c3)nc2)no1 [Compound 13l]
